Measurements as given in US20240183865A1, “METHOD FOR MEASURING AGGREGATING PROTEINS, METHOD FOR VISUALIZING AGGREGATION, AND KIT USED THEREFOR” (KANEKA CORPORATION, priority 2021, published 2024).
pEC50: −log10 of the molar value.

Biological target: T1, Aβ42 (Homo sapiens, UniProt P05067)
T1 construct: the amyloid β42 protein (Aβ42)
Test: MSHTS quantification of aggregated Aβ with QD-Aβ40 in filtrate collected with Blocking 12
Type: biochemical
Details: Aβ42 and QD-Aβ40, 37° C. for 24 hours, SD value, read-out: RA concentration at which Aβ accounting for approximately 50% of the whole would not be aggregated
Experimental: Accordingly, whether or not it is possible to visualize aggregation of the amyloid β protein in such filtrate was examined. The quantum-dot-modified amyloid 40 protein (QD-Aβ40) was dissolved in the filtrate collected in Example 3, the solution was added to and mixed with the 1 mM Aβ42 solution, and the filtrate collected in Example 3 comprising 50 μM Aβ42 and 50 nM QD-Aβ40 was prepared. The 150 mM rosmarinic acid (RA) solution was diluted with the filtrate collected in Example 3 to five levels of concentration (3,000 μM, 600 μM, 120 μM, 24 μM, and 4.8 μM). Aβ42 and QD-A$40 were diluted with the filtrate collected in Example 3 to prepare a mixture of 50 μM Aβ42 and 50 nM QD-Aβ40. […] As a result, none of the solutions were sufficient in terms of sensitivity of SD values to perform quantitative analysis of aggregated Aβ (FIG. 4).
With the use of Blocking 12, accordingly, a 50 μM Aβ42 solution was prepared from the filtrate collected in the same manner as in Example 2, and QD-Aβ40 was diluted in the collected filtrate to adjust the concentration of QD-Aβ40 to 50 nM. […] These reaction solutions were incubated at 37° C. for 24 hours, aggregated Aβ was observed under a fluorescent microscope, and aggregated AD was quantified. […] It was found necessary that the sensitivity of the SD value be 60% or higher relative to that of PBS designated as 100% for quantification of aggregated AD.

T1 sequence (P05067 672-713 limits assumed): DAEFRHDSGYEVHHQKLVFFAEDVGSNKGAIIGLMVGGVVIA

- pEC50: ≥ 4.34
SMILES: O=C(/C=C/c1ccc(O)c(O)c1)O[C@H](Cc1ccc(O)c(O)c1)C(=O)O [RA, rosmarinic acid]
